Results from publication PMC7822874, “Chemoprotective antimalarials identified through quantitative high-throughput screening of Plasmodium blood and liver stage parasites” (Scientific Reports, 2021).
Read-outs that look alike come from different tables or passages of the source.

Experiments:
[1] = tested on: P. falciparum Dd2 Cytb G131S; test: SYBR Green ABS proliferation assay, NCGC00374598 selected clone C11; type: cell-based, Plasmodium falciparum; details: Plasmodium falciparum
Description: (§1) As resistance selection studies implicated the parasite cytochrome bc1 complex in mediating reduced parasite susceptibility to both NCGC00473217 and NCGC00374598, we leveraged these drug-selected parasites to test for altered drug response to a panel of antimalarial compounds.
(§2) The P. falciparum parasite Dd2 line was cultured in vitro using standard conditions. […] Tissue culture flasks and assay plates were incubated at 37 °C under a gas mixture of 5% CO2, 5% O2 and 90% N2. […] Significant differences were assessed using two-sided Student’s t-tests. All HTS assays were stopped and read at 72 h. Percent response values represent relative growth as judged by SYBR Green-I fluorescence intensity values normalized to controls.
(§3) Fresh uninfected RBCs (0.5% hematocrit) were added on day 7 and media was changed every other day. […] Resistant parasites were maintained under drug media at a volume of 50 mL until a high parasitemia (> 5%) was achieved. Aliquots of the bulk resistant cultures were frozen in cryovials before cloning by limiting dilution in 96-well plates (seeded at 0.25 or 0.5 parasites/well)[70]. After 3 weeks of cloning, we screened for positive wells by flow cytometry with SYBR Green-stained cells. […] Parasites were harvested by saponin lysis at the trophozoite stage and genomic DNA was extracted using the QIAamp DNA Blood Midi Kit (Qiagen, Germantown, MD)[71].

[2] = tested on: P. falciparum Dd2 Cytb F123L; test: SYBR Green ABS proliferation assay, NCGC00473217 selected clone G08; type: cell-based, Plasmodium falciparum; parameters: log AC50, mean: unit: log10(M); details: for AC50: Plasmodium falciparum
Description: as §1, §2, §3

[3] = tested on: P. falciparum Dd2 Cytb V259L; test: SYBR Green ABS proliferation assay, NCGC00473217 selected clone F06; type: cell-based, Plasmodium falciparum; details: Plasmodium falciparum, DD2, […]; averaged from three independent replicates; top concentration 29 µM; read-out: Average AC50 (Log[M]), NCGC00473217 clone F06 (Cytb V259L) (converted)
Description: as §1, §2, §3

[4] = tested on: P. falciparum Dd2 (clone B2) asexual blood stage parasites; test: P. falciparum Dd2 asexual blood stage SYBR Green-I 72 h proliferation assay (qHTS); type: cell-based, Plasmodium falciparum; details: Plasmodium falciparum, DD2, Dd2 parental; Hill fit, averaged from three independent replicates; top concentration 29 µM; read-out: Average AC50 (Log[M]), Dd2 (converted)
[5] = tested on: P. falciparum Dd2 Cytb A122D; test: SYBR Green ABS proliferation assay, NCGC00473217 selected clone F12; type: cell-based, Plasmodium falciparum; details: Plasmodium falciparum
Description: as §1, §2, §3

[6] = tested on: P. berghei-ANKA-GFP-LucCON liver stage parasites in HepG2-A16-CD81EGFP cells; test: P. berghei liver stage Pb-Luc assay, Method 1 (UCSD, 1536-well); type: cell-based, Plasmodium berghei; details: Method 1; Decrease = decreasing P. berghei viability with dose, Increase = increasing signal, Inactive = no dose response
[7] = tested on: luciferase-expressing P. berghei liver stage parasites in HepG2 cells; test: Inhibition of liver-stage development assay (ILSDA), Method 2 (WRAIR, 96-well); type: cell-based, Plasmodium berghei; details: P. berghei liver stage, Method 2, dose response
[8] = tested on: Plasmodium falciparum Dd2 asexual blood stage parasites; test: microbe, parasite or virus in culture; parameters: species or system Plasmodium falciparum Dd2 in human erythrocytes; single determination (one 11-point concentration-response curve); details: Plasmodium falciparum, DD2, Erythrocyte, 72 h; read-out: AC50
[9] = DD2, […], averaged from three independent replicates, top concentration 29 µM, read-out: Average AC50 (Log[M]), NCGC00374598 clone C11 (Cytb G131S) (converted)
[10] = DD2, […], averaged from three independent replicates, top concentration 29 µM, read-out: Average AC50 (Log[M]), NCGC00473217 clone G08 (Cytb F123L) (converted)
[11] = DD2, […], averaged from three independent replicates, top concentration 29 µM, read-out: Average AC50 (Log[M]), NCGC00473217 clone F12 (Cytb A122D) (converted)
[12] = DD2, cytochrome b mutant line, fifth value triple, c15, […], read-out: log AC50, mean (converted)

Compound | AC50 [1, 9] | AC50 [2, 10] | AC50 [3] | AC50 [4] | AC50 [5, 11] | also measured
NS(=O)(=O)c1cc2c(cc1C(F)(F)F)NC(Cc1ccccc1)NS2(=O)=O (stereo not drawn) [NCGC00018194-08] | 1e-08 M | 8.93e-06 M | 1.26e-06 M | – | – | –
CC(C)CC1=N[S+](=O)([O-])c2cc(NC(=O)c3cccs3)ccc2N1C [NCGC00521057-01] | 2.24e-07 M | 1.89e-07 M | – | 1.85e-06 M | 1e-06 M | –
CCCN1C(CC(C)C)=N[S+](=O)([O-])c2cc(N)ccc21 [NCGC00521151-01] | 2e-06 M | 3.99e-06 M | – | 2e-05 M | – | –
CCCN1C(CC(C)C)=N[S+](=O)([O-])c2cc(NC(=O)c3ccc(-c4ccccc4)o3)ccc21 [NCGC00521160-01] | – | 5.02e-06 M | 6.32e-06 M | – | 3.17e-06 M | –
CCCN1C(CC(C)C)=N[S+](=O)([O-])c2cc(NC(=O)c3ccc(-c4ccccc4)cc3)ccc21 [NCGC00521159-01] | 7.1e-06 M | – | 7.1e-06 M | 8.93e-06 M | 8.93e-06 M | –
CCCN1C(CC(C)C)=N[S+](=O)([O-])c2cc(NC(=O)c3c(C)noc3C)ccc21 [NCGC00521866-01] | 1e-05 M | 2.52e-06 M | – | 1.78e-05 M | 7.52e-06 M | –
CCCN1C(CC(C)C)=N[S+](=O)([O-])c2cc(N[S+](=O)([O-])c3ccc(F)cc3)ccc21 [NCGC00521879-01] | – | 6.32e-07 M | – | – | – | –
N[S+](=O)([O-])c1cc2c(cc1Cl)NC(C(Cl)Cl)N[S+]2(=O)[O-] (stereo not drawn) [NCGC00018302-09] | – | 5.02e-06 M | 1.42e-06 M | – | 6.32e-07 M | –
CCCN1C(CC(C)C)=N[S+](=O)([O-])c2cc(NC(=O)c3cnon3)ccc21 [NCGC00521034-01] | – | 1.59e-06 M | 1e-05 M | – | – | –
CCCN1C(CC(C)C)=N[S+](=O)([O-])c2cc(N[S+](=O)([O-])c3cccs3)ccc21 [NCGC00521163-01] | – | 1.12e-05 M | 1.59e-05 M | 1.78e-05 M | 8.93e-06 M | –
CN1C(CC2CCCCC2)=N[S+](=O)([O-])c2cc(NC(=O)c3ccc(F)s3)ccc21 [NCGC00651709-01] | – | – | – | – | – | AC50 ([1]; DD2, cytochrome b mutant line, second value triple, c6, […], read-out: log AC50, mean (converted)): 5.96e-06 M; AC50 [2, 12]: 1.68e-05 M; AC50 ([5]; DD2, cytochrome b mutant line, fourth value triple, c12, […], read-out: log AC50, mean (converted)): 5.31e-06 M
CCCN1C(CC(C)C)=N[S+](=O)([O-])c2cc(NC(=O)c3cc4ccccc4o3)ccc21 [NCGC00521880-01] | – | 1.34e-06 M | 4.48e-07 M | – | 3.99e-06 M | –
NS(=O)(=O)c1cc2c(cc1Cl)NC(C1CC3C=CC1C3)NS2(=O)=O (stereo not drawn) [NCGC00015288-06] | – | 5.64e-07 M | – | – | 7.1e-07 M | –
O=C(Nc1ccc2c(c1)[S+](=O)([O-])N=C1CCCN12)c1cccs1 [NCGC00537660-01] | – | – | – | – | – | AC50 [2, 12]: 2e-09 M
CCCN1C(CC(C)C)=N[S+](=O)([O-])c2cc(NC(=O)c3ccc(OC(F)(F)F)cc3)ccc21 [NCGC00531538-01] | – | 1.78e-05 M | – | 1.26e-06 M | 1.59e-06 M | –
O=c1[nH]c(N2CCOCC2)nc2c1CCN(Cc1ccc(Cl)cc1F)CC2 [NCGC00440653-01] | – | – | – | – | – | AC50 [2, 12]: 2.16e-06 M; log AC50, mean ([2]; cytochrome b mutant line, fifth value triple, c15, […]): -5.475; Max Resp (signal direction of the dose response) [6]: Inactive; Activity direction (Decrease / Inactive) [7]: Inactive; AC50 [8]: 3.35 µM
CCCN1C(CC(C)C)=N[S+](=O)([O-])c2cc(NC(=O)c3ccc(F)c(F)c3)ccc21 [NCGC00531540-01] | 7.96e-07 M | 7.1e-07 M | – | 5.22e-06 M | 3.99e-07 M | –
CCCN1C(CC(C)C)=N[S+](=O)([O-])c2cc([N+](=O)[O-])ccc21 [NCGC00510308-01] | – | 2.52e-09 M | 1.59e-05 M | – | – | –
